Experimental data reported in patent US9725490B2, “ERAP1-derived peptide and use thereof” (TOKUSHIMA UNIVERSITY, priority 2011, dated 2017).

Experiments:
[1] = system: transcriptional activity of ERE-ERα; assay: ERE-luciferase reporter assay in KPL-3C cells; format: cell-based, human; settings: 10 nM E2 24 hours
Protocol: KPL-3C cells temporarily transfected with an ERE-luciferase reporter vector were treated with the ERAP1-peptide in the concentrations shown in the figure. Then, immediately, the cells were stimulated with 10 nM E2 for 24 hours. TAM indicates the tamoxifen treatment. […] KPL-3C cells were treated for 24 hours with the ERAP1-peptide and/or E2. Then, the nuclear fraction was immunoprecipitated with anti-ERα antibody or an anti-PHB2 antibody.

MCF-10A cells = assay: Cell proliferation assay, normal epithelial MCF-10A; format: cell-based, human; settings: 24 hours
Protocol: FIG. 6-1 is a diagram illustrating that ERAP1-peptide treatment suppresses ERα-dependent cell proliferation of breast cancer cell lines. (A) and (B) show the results of MTT assay by which the inhibition effect of the ERAP1-peptide in the E2-dependent cell proliferation was evaluated. MCF-7 cells were treated with the ERAP1-peptide (A, B) the ERAP1-scramble peptide (B) or the ERAP1-mutant peptide (B).
Using Cell-Counting Kit-8 (CCK-8, Dojindo, Kumamoto, Japan), the cell proliferation assay was performed. The cells were harvested, and plated in 2×10^4 cells/well on a 48-well plate, and maintained at 37° C. in a humidified incubator. At the indicated time points, the cells were added with a CCK-8 solution diluted to 1:10, and incubated for 1 hour. Then, the absorbance at 450 nm was measured and the number of living cells in each well was calculated.

SK-BR-3 cells = assay: Proliferation of ERα negative SK-BR-3 cells; format: cell-based, human; settings: 24 hours and 48 hours
Protocol: FIG. 40 is a diagram illustrating the results of MTT assay by which proliferation suppression effect of the ERAP1-peptide in ERα negative breast cancer cell lines, SK-BR-3 cells was evaluated. SK-BR-3 cells were treated with the ERAP1-peptide (Peptide) or the ERAP1-scramble peptide (scrPeptide) for 24 hours or for 48 hours.
Cell proliferation assay was performed using Cell-Counting Kit-8 (CCK-8, Dojindo, Kumaamoto, Japan). The cells were harvested, and plated in 2×10^4 cells/well on a 48-well plate, and maintained in a humidified incubator (37° C.). 10 fold-diluted CCK-8 solution was added at indicated time points and the cells were incubated for 1 hour. Then, the absorbance at 450 nm was measured and the number of living cells was calculated.

[2] = system: Akt, MAPK and ERα phosphorylation; assay: Phosphorylation of Akt, MAPK and ERα in tamoxifen-resistant MCF-7 cells; format: cell-based, human
Protocol: FIG. 14 is a diagram illustrating the suppression effect of the ERAP1-peptide on tamoxifen-resistant MCF-7 cells. […] The tamoxifen-resistant MCF-7 cells were treated with the ERAP1-peptide in each concentration (0, 5 and 10 μM). Then, immediately, the cells were stimulated with 10 nM E2 for 24 hours.
MCF-7 cells and tamoxifen-resistant MCF-7 cells were seeded in 1×10^5/well in DMEM/F12 culture medium containing phenol red on a 24-well plate and stood in a CO2 incubator for 24 hours. Then, the culture medium was exchanged with DMEM/F12 culture medium containing 10% FBS, 1% penicillin/streptomycin and 1 μM tamoxifen, and not containing phenol red, and the cells were further pre-cultured for 24 hours. The supernatant was removed, and then 180 μl of […] ERAP1-peptide was added (final concentration: 10 μM), and subsequently 20 μl of 100 nM E2 was added (final concentration: 10 nM), and the mixture was reacted for 24 hours. The reaction solution was removed, and then 100 μl of SDS-sample buffer was added and the cells were lysed. The cells were subjected to boiling treatment at 95° C. for 5 minutes, and subjected to polyacrylic amide electrophoresis. Phosphorylations of Akt and MAPK were detected with anti-phosphorylation Akt (Ser473) (587F11) and anti-phosphorylation p44/42 MAP Kinase (Thr202/Tyr204) antibodies, and phosphorylation of ERα was detected with anti-phosphorylation ERα (Ser104/106), anti-phosphorylation ERα (Ser118), anti-phosphorylation ERα (Ser167), anti-phosphorylation ERα (Ser305) and anti-phosphorylation ERα (Tyr537) antibodies.

KPL3 cells = assay: E2-independent cell proliferation, KPL-3C; format: cell-based, human; settings: 10 μM every 24 hours, at 48 hours
Protocol: FIG. 16 is a diagram illustrating the influence of the ERAP1-peptide on proliferation of E2-independent breast cancer cells. […] Each of the cells was treated with 10 μM ERAP1-peptide for 24 hours (MCF-7), for 48 hours (KPL-3C) or for 96 hours (ZR-75-1 and T47D).
MCF-7 cells or ZR-75-1 cells were seeded in 2×10^4/well, and KPL-3C cells were seeded in 1×10^4/well on a 48-well plate, and stood in a CO2 incubator for 24 hours. Then, for MCF-7 cells, the culture medium was exchanged with DMEM/F12 culture medium containing 10% FBS (Nichirei Biosciences, Tokyo, Japan), 1% antibiotic/antimycotic solution (Invitrogen), 0.1 mM NEAA48 (invitrogen), 1 mM sodium pyruvate and 10 μg/ml insulin (Sigma, St. Louis, Mo., USA) and not containing phenol red, and the cells were further pre-cultured for 24 hours. On the other hand, for ZR-75-1 cells and KPL-3C cells, the culture media were exchanged with RPMI culture media containing 10% FBS and 1% antibiotic/antimycotic solution and not containing phenol red, and the cells were further pre-cultured for 24 hours. The supernatant was removed, and then 200 μl of the ERAP1-peptide in each concentration or tamoxifen as a positive control was added, respectively and the mixture was reacted for 24 hours. […] Then, 100 μl from each well was moved to a 96-well plate, and the absorbance at 450 nm was measured with a microplate reader.

[3] = Stability of ERAP1-peptide in MCF-7 cells, immunoblotting; format: in vitro ADME, human
Protocol: FIG. 37 is a diagram illustrating the results of evaluations for the stability of the ERAP1-peptide and the influence of the ERAP1-peptide on cellular E2. […] MCF-7 cells were treated with 10 μM HA-tagged ERAP1-peptide. Then, immediately, the cells were temporally stimulated with 10 nM E2. The data are standardized with β-actin, and show the ratio when the value at 1 hour (n=1, 3) or at 3 hours (n=2) is designated as 100. […] MCF-7 cells were treated with 10 μM ERAP1-peptide. Then, immediately, the cells were temporally stimulated with 10 nM E2. The cell lysate was centrifuged, and then the supernatant and a precipitate lysed with methanol were mixed (final concentration of methanol: 10%), and the cellular E2 concentration was measured with a commercially available kit (17β-estradiol ELISA kit, Wako Pure Chemical Industries, Ltd.).

With CSCC[C@H](NC(=O)[C@H](CCC(N)=O)NC(=O)[C@H](CCCNC(=N)N)NC(=O)[C@H](CCCNC(=N)N)NC(=O)[C@H](CCCNC(=N)N)NC(=O)[C@H](CCCNC(=N)N)NC(=O)[C@H](CCCNC(=N)N)NC(=O)[C@H](CCCNC(=N)N)NC(=O)[C@H](CCCNC(=N)N)NC(=O)[C@H](CCCNC(=N)N)NC(=O)[C@H](CCCNC(=N)N)NC(=O)[C@H](CCCNC(=N)N)NC(=O)[C@@H](N)CCCNC(=N)N)C(=O)N[C@@H](CC(C)C)C(=O)N[C@@H](CO)C(=O)N[C@@H](CC(=O)O)C(=O)N[C@@H](CC(C)C)C(=O)N[C@H](C(=O)N[C@@H](CC(C)C)C(=O)N[C@@H](CCC(N)=O)C(=O)N[C@@H](CC(C)C)C(=O)N[C@@H](CCCNC(=N)N)C(=O)N[C@@H](CCC(N)=O)C(=O)N[C@@H](CCCNC(=N)N)C(=O)O)[C@@H](C)O [ERAP1-peptide] the “transcriptional activity of ERE-ERα” value [1] was “suppression for the transcriptional activity of ERE-ERα was recognized”, the cell proliferation (MCF-10A cells) was “had no influence on the cell proliferation at all” and the cell proliferation (SK-BR-3 cells) was “had suppression effect on the cell proliferation in dose-dependent manner both at 24 hours and 48 hours”. The “phosphorylation of ERα” value ([2]; Tam-R MCF-7, 10 μM peptide) was “all phosphorylation of ERα was also decreased”, the “phosphorylations of Akt and MAPK” value ([2]; Tam-R MCF-7, tamoxifen alone or tamoxifen and E2) was “phosphorylations of Akt and MAPK were remarkably decreased” and the “cell proliferation in the absence of E2” value (KPL3 cells) was “significant cell proliferation suppression effect”. The “residual percentage of the ERAP1-peptide” value ([3]; 24 hours after the administration, on average) was 84%, the “residual percentage of the ERAP1-peptide” value ([3]; after 30 hours) was 56% and the “residual percentage of the ERAP1-peptide” value ([3]; after 36 hours) was 58%. The “residual percentage of the ERAP1-peptide” value ([3]; after 48 hours) was 54% and the half-life ([3]; human, in MCF-7 cells) was roughly 30 h.
